Tests used:
[1] = system: HHD-DR1 mice; experiment: IFN-γ intracellular cytokine staining (flow cytometry) of CD4+ and CD8+ T cells after peptide immunization; assay type: in vivo, mouse; details: splenocytes of immunized mice stimulated with peptide 10 μM, 4 hours, GolgiStop/GolgiPlug; cell density plots
Procedure: (§1) Eight-week-old female HHD-DR1 mice, transgenic for human HLA-A*02:01 molecules ([82]), were used. After study approval by the ethics review committee (reference no. 036-21), mice were bred and housed under pathogen-free conditions in the animal facility of the Center for Applied Medical Research (CIMA). Mice (n = 4 per group) were immunized with peptides (100 nmol per peptide), polyinosinic:polycytidylic acid (50 μg per mouse), and αCD40 (50 μg per mouse). The peptides and adjuvants were administered simultaneously via subcutaneous injection of 100 μl of the mixture resuspended in phosphate-buffered saline. Mice received a boost on day 7 and were euthanized on day 14.
Splenocytes were stimulated with the peptides (10 μM) in the presence of GolgiStop and GolgiPlug (BD Biosciences). Four hours later, cells were surface stained with the following antibodies: CD3ε-Percp-Cy5 (145-2 C11), CD4-FITC (RM4-5), and CD8-BV421 (53-6.7) from BioLegend. Next, cells were fixed and permeabilized using BD Cytofix/Cytoperm Fixation/Permeablization Kit and intracellularly stained with IFNγ-PE (XMG1.2) antibodies. Samples were acquired with a Cytoflex (Beckman Coulter) flow cytometer and were analyzed using FlowJo software (Tree Star).

[2] = system: HHD-DR1 mice; experiment: IFN-γ ELISPOT on splenocytes of peptide-immunized HLA-A*02:01 transgenic mice; assay type: in vivo, mouse; details: for IFN-γ signal after peptide immunization (immunogenicity), in words: HLA-A*02:01 / HLA-DRB1*01 transgenic mice immunized twice, T cell response measured at day 14 by IFN-γ ELISPOT
Procedure: as §1
The spleens of immunized mice were processed to measure the number of IFN-γ secreting cells. Splenocytes (8 × 10^5 cells per well) were stimulated for 24 hours with peptides (10 μg/ml). The number of IFN-γ secreting cells was quantified by ImmunoSpot automated counter (Cellular Technology Limited) using the Spot 3 CTL CellCounting software.

In the case of GLFHIYHKI, the “IFN-γ producing CD8+ versus CD4+ T cells (ICS), in words” value [1] is reported as “signal for CD8+ cells only” and the “IFN-γ signal after peptide immunization (immunogenicity), in words” value [2] is reported as “strong IFN-γ signal”.
WMSLDWELYV was tested, and the “IFN-γ producing CD8+ versus CD4+ T cells (ICS), in words” value [1] was “signal for CD8+ cells only”, the “number of IFN-γ secreting cells (IFNγSFC)” value ([2]; HHD-DR1 mice, n = 4 per group, 100 nmol peptide + poly I:C + αCD40 s.c., boost day 7, spleens day 14, splenocytes stimulated 24 hours with peptide 10 μg/ml, all four replicates) was > 1000 IFNγSFC per 8 × 10^5 cells and the “IFN-γ signal after peptide immunization (immunogenicity), in words” value [2] was “strong IFN-γ signal”.

Source: publication PMC11235171, “Microproteins encoded by noncanonical ORFs are a major source of tumor-specific antigens in a liver cancer patient meta-cohort” (Science Advances, 2024)
